From paper PMC11329928, “Design, synthesis and structure-activity relationship (SAR) studies of an unusual class of non-cationic fatty amine-tripeptide conjugates as novel synthetic antimicrobial agents” (Frontiers in Pharmacology, 2024)
Structures can show the parent of a compound that is named as a salt. Where two headings read alike, the source gives them in different places.

Assays:
[1] = test system: human fetal lung fibroblasts IMR-90; assay type: cell-based
Procedure: DICAM’s cytotoxicity was determined employing a modified MTT assay as described elsewhere ([Antúnez-Mojica et al., 2016]) using human lung carcinoma epithelial cells A549, human fetal lung fibroblasts IMR-90, and human HeLa cervix carcinoma cells treated with increasing concentrations of DICAMs (0.8–200 µM range). A549 cells were grown in RPMI 1640 (Gibco; Fisher Scientific, Spain) supplemented with 10% FCS, 2 mM glutamine, 100 IU/mL penicillin and 100 μg/mL streptomycin. IMR-90 and HeLa cells were cultured in DMEM (Gibco; Fisher Scientific, Spain) supplemented with 10% FCS, 2 mM L-glutamine, 1 mM pyruvate, […] penicillin, 100 μg/mL streptomycin and 40 μg/mL gentamycin. Cell viability was assessed after 48 h exposure to DICAMs. Vinblastine was used as a positive control. IC50 value is the concentration that gives 50% inhibition of cell growth and was determined using SigmaPlot (Systat) fitting to a Four Parameter Logistic curve.

[2] = test system: S. pneumoniae D39; assay type: cell-based, Streptococcus pneumoniae; conditions: for SC (stationary concentration, Δlog = 0), S. pneumoniae D39 / EC50 / Δlogmax, S. pneumoniae D39: 1 h treatment, Hill fit; for SC (stationary concentration, Δlog = 0), S. pneumoniae D39: C + Y medium, added at T1, 10^7–10^8 CFU/mL, CFU vs untreated controls; for EC50 / Δlogmax, S. pneumoniae D39: C + Y; for EC50: read-out: K 1/2 (concentration yielding half-variation in Δlogmax), S. pneumoniae D39 (converted); for Reduction of the number of viable cells at 3 × SC, S. pneumoniae: after 1-h incubation at 3 × SC values; for Δlogmax, S. pneumoniae D39: maximum variation in viability
Excerpt: First, the substitution of the fatty amino chain of 18 carbon atoms of the reference compound DICAM 2 by either an OMe group (methylated tripeptide DICAM 5) or an amine with 12 carbon atoms (DICAM 9) abolished the activity against all three pathogens. However, the activity remained intact when the chain of the fatty amine of prototypes DICAMs 1 and 4 was two carbon atoms shorter (DICAM 10 and DICAM 12, respectively), based on S. pneumoniae and S. pyogenes results. […] Third, Glu and Ala were tolerated as C-terminal residues of the lipotripeptides. […] In addition, deletion of the C-terminal Glu (DICAM 13) eradicated the activity against S. pneumoniae and S. aureus. However, a delay and small inhibition of S. pyogenes ^T growth was still observed. Fourth, Glu (DICAMs 19 and 20) and Orn (DICAMs 21 and 22) were tolerated as N-terminal residues, with the impact of these modifications being pathogen-dependent. […] SAR studies continued by measuring the dose dependence of DICAM’s activity at T1 with all the compounds found to be active against S. pyogenes or S. aureus in the initial screening, and all but one compound in the case of S. pneumoniae. The OD values of bacterial cultures were monitored after DICAM addition, and the decrease in the number of viable bacteria was measured relative to controls (Figures 4–6; Supplementary Figure S1). As antibacterial efficacy may decline with the bacterium dose in the inoculum ([Belley et al., 2009]; [Udekwu et al., 2009]; [Luca et al., 2013]), the assays were performed using the bacterial concentrations necessary for the fluorescence experiments in Section 2.3 (10^7–10^8 CFU/mL). At these high bacterial densities, MICs were determined as the DICAM concentration at which bacteria neither grow nor are killed (the stationary concentration (SC)), following [Udekwu et al., 2009]. By fitting the logarithmic plot of cell viability decrease vs. the DICAM dose to a Hill function (see Section 5.2.3.1) we were able to determine the maximum variation in viability (Δlogmax = ∆log f - ∆log 0, where ∆log f and ∆log 0 are the upper and lower limits of Δlog) in the assay conditions, the SC concentration (Δlog = 0), the dose required for half-variation in Δlogmax (K 1/2), and the cooperativity of the antimicrobial effect (N H).
Susceptibility to DICAMs was first tested by growth-inhibition assays at 50 and 100 μM of compound. Briefly, working solutions at 5 mM or 10 mM DICAM in pure DMSO were prepared from DICAM stocks (40 mM in pure DMSO) and diluted with fresh culture medium to 5× the desired final concentration. Aliquots (50 µL) of these solutions were added to 200 µL of bacterium cultures grown to early exponential phase (OD550/600 c. a. 0.15–0.2 in sterile 96-well plates (Cultek, Spain). Incubation continued for 10 h at 37°C and turbidity (OD550/600) values were measured every 20 min to monitor growth and lysis, using a VersaMax microplate reader (Molecular Devices; United Kingdom). Next, the activity dependence on DICAM’s dose was examined by measuring the turbidity of treated and untreated cultures as a function of time. Also, the decay of bacterial viability (CFU/mL) at selected times of treatment was assessed by colony counting on LB-agar or TSA plates after overnight incubation at 37°C. By default, 10 μL of 10-fold serially diluted samples were plated, which set the lower detection limit at 10^2 CFU/mL (10^1 CFU/mL when 100 μL of the undiluted sample was seeded).
As antibacterial efficacy may decline with the bacterium dose in the inoculum ([Belley et al., 2009]; [Udekwu et al., 2009]; [Luca et al., 2013]), activity assays were performed using the bacterial concentrations required for the fluorescence experiments in Section 2.3 (10^7–10^8 CFU/mL). At such bacterial densities, MICs were determined as the DICAM concentration at which bacteria neither grow nor are killed under assay conditions (the stationary concentration (SC)), as indicated in Section 2.2. […]

[3] = RP-HPLC retention time used to determine hydrophobicity; assay type: physicochemical; conditions: analytical RP-HPLC, C18 Sunfire column (4.6 mm × 150 mm, 3.5 μm); A = 0.05% TFA in water, B = acetonitrile; 10% to 100% B in 20 min then isocratic 100% B 10 min; 217 and 254 nm; used as measure of hydrophobicity
Procedure: The purity of the lipopeptides was checked by analytical RP-HPLC on an Agilent Infinity instrument equipped with a Diode Array and a C18 Sunfire column (4.6 mm × 150 mm, 3.5 μm). As mobile phase A:B mixtures were used, where A = 0.05% TFA in water and B = acetonitrile. The samples were analyzed at 217 and 254 nm in a gradient from 10% of B to 100% of B in 20 min followed by isocratic 100% of B in 10 min.
Retention times were used to determine the hydrophobicity ([Neubauer et al., 2020]). HRMS (EI+) was carried out in an Agilent 6,520 Accurate-Mass Q-TOF LC/MS spectrometer using water/acetonitrile mixtures. Results can be found in Supplementary Section S3, S4.

[4] = S. pneumoniae D39, 50 μM (Supplementary Figure S1F), C+Y, 37°C
[5] = S. pneumoniae D39, within 60 min

Compound	IC50 ([1]; 48 h) [µM]	SC (stationary concentration, Δlog = 0), S. pneumoniae D39 ([2]; 37°C)	EC50 ([2]; 37°C) [µM]	Cell killing after 60 min of incubation [2, 4] [%]	Time to nearly sterilize the culture ([2]; S. pneumoniae D39, 50 μM, C+Y, 37°C, legend of Supplementary Figure S1F)	Reduction of the number of viable cells at saturating doses [2, 5] [log-units]	Reduction of the number of viable cells at 3 × SC, S. pneumoniae [2]	Δlogmax, S. pneumoniae D39 ([2]; 37°C) [logarithmic units]	Retention time [3] [min]	Time required to reduce the viability by 99.99% [2, 4] [h]	Viability decrease in 1 h [2, 4]	IC50 ([1]; modified MTT, 48 h exposure, 0.8–200 µM, four parameter logistic fit, ± SD, at least three independent experiments, read-out: IC50 IMR-90) [µM]	Bacterial viability reduction at ≈ 5 μM ([2]; S. pneumoniae D39, within 60 min, ≈ 5 μM) [%]
CCCCCCCCCCCCCCCCCCNC(=O)[C@H](CCC(=O)O)NC(=O)[C@H]1CCCN1C(=O)[C@H](C)N [DICAM 4, Ala- Pro -Glu-NH-C18H37 ·HCl]	65 ± 3	4 ± 1.5 µM	13 ± 2	≥ 99.999	less than 1 h	≥ 4.6	99.2%–99.8	6.0 ± 0.4	19.24	–	–	–	–
CCCCCCCCCCCCCCCCCCNC(=O)[C@H](CCC(=O)O)NC(=O)[C@H]1CCCN1C(=O)[C@H](CC(N)=O)NC(=O)OCc1ccccc1 [DICAM 1, Cbz-Asn- Pro -Glu-NH-C18H37]	39 ± 1	2 ± 0.2 µM	3.8 ± 0.2	–	–	–	–	2.05 ± 0.03	21.41	2 to 2.5	≈ 90%	–	–
CCCCCCCCCCCCCCCCCCNC(=O)[C@H](CCC(=O)O)NC(=O)[C@H]1CCCN1C(=O)[C@H](CCCN)NC(=O)OCc1ccccc1 [DICAM 21, Cbz-Orn- Pro -Glu-NH-C18H37]	86 ± 15	8 ± 1 µM	9 ± 1	–	–	–	–	1.9 ± 0.1	19.70	–	–	–	–
CCCCCCCCCCCCCCCCCCNC(=O)[C@H](CCC(=O)O)NC(=O)[C@H]1CCCN1C(=O)[C@@H](N)CC(N)=O [DICAM 2, Asn- Pro -Glu-NH-C18H37 ·HCl]	46.7 ± 0.7	4.1 ± 0.6 µM	10.7 ± 0.4	–	–	≥ 4.6	99.2%–99.8	4.6 ± 0.1	12.14	–	–	–	–
CCCCCCCCCCCCCCCCNC(=O)[C@H](CCC(=O)O)NC(=O)[C@H]1CCCN1C(=O)[C@H](CC(N)=O)NC(=O)OCc1ccccc1 [DICAM 10, Cbz-Asn- Pro -Glu-NH-C16H33]	45 ± 1	3.4 ± 0.5 µM	6.5 ± 0.3	–	–	–	–	3.13 ± 0.06	18.23	2 to 2.5	≈ 90%	–	–
Ala - Pro -Glu-NH-C18H37 · HCl [DICAM 23]	–	2.9 ± 0.8 µM	8.6 ± 0.3	–	–	≥ 4.6	99.2%–99.8	5.4 ± 0.2	19.31	–	–	57 ± 2	–
CCCCCCCCCCCCCCCCCCNC(=O)[C@H](C)NC(=O)[C@H]1CCCN1C(=O)[C@H](C)N [DICAM 14, Ala- Pro -Ala-NH-C18H37 · HCl]	7.69 ± 0.06	∼33 µM	–	–	–	–	–	–	19.50	–	–	–	–
CCCCCCCCCCCCCCCCCCNC(=O)[C@H](CCC(=O)O)NC(=O)[C@H]1CCCN1C(=O)[C@H](CCC(=O)O)NC(=O)OCc1ccccc1 [DICAM 19, Cbz-Glu- Pro -Glu-NH-C18H37]	44 ± 1	3.0 ± 0.8 µM	~5	–	–	–	99.2%–99.8	3.0 ± 0.2	21.22	–	–	–	> 99.5
CCCCCCCCCCCCCCCCCCNC(=O)[C@H](CCC(=O)O)NC(=O)[C@H]1CCCN1C(=O)[C@H](C)NC(C)=O [DICAM 24, Ac-Ala- Pro -Glu-NH-C18H37]	43.8 ± 0.6	4 ± 0.8 µM	6.1 ± 0.6	–	–	–	–	2.2 ± 0.1	21.23	–	–	–	–
CCCCCCCCCCCCCCCCCCNC(=O)[C@H](CCC(=O)O)NC(=O)[C@H]1CCCN1C(=O)[C@H](C)NC(=O)OCc1ccccc1 [DICAM 3, Cbz-Ala- Pro -Glu-NH-C18H37]	75 ± 13	6.5 ± 0.5 µM	7.8 ± 0.4	–	–	–	–	1.51 ± 0.04	21.42	2 to 2.5	≈ 90%	–	–
